In assay [1] the target is T1, Aldehyde dehydrogenase, dimeric NADP-preferring (Homo sapiens, UniProt P30838).
T1 sequence (P30838 whole entry): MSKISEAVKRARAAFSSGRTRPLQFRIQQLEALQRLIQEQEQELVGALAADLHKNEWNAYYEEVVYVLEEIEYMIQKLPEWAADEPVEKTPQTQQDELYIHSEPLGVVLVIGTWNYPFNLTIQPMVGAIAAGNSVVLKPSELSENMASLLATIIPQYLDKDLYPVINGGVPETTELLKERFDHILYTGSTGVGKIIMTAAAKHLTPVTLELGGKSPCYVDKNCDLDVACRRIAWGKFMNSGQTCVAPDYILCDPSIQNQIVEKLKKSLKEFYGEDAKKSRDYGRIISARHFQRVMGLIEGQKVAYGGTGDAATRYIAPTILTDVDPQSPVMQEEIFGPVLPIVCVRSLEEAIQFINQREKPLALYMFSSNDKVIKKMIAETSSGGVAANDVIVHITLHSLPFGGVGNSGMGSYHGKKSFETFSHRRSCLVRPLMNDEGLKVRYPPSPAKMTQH
The assay can be described thus: Inhibition of recombinant human ALDH3A1 using benzaldehyde as substrate preincubated for 2 mins with NAD+ followed by substrate addition by UV-Vis spectrophotometric analysis.

Assay [2] concerns the target T2, Cytosolic 10-formyltetrahydrofolate dehydrogenase (Rattus norvegicus) (UniProt P28037).
T2 sequence (whole entry): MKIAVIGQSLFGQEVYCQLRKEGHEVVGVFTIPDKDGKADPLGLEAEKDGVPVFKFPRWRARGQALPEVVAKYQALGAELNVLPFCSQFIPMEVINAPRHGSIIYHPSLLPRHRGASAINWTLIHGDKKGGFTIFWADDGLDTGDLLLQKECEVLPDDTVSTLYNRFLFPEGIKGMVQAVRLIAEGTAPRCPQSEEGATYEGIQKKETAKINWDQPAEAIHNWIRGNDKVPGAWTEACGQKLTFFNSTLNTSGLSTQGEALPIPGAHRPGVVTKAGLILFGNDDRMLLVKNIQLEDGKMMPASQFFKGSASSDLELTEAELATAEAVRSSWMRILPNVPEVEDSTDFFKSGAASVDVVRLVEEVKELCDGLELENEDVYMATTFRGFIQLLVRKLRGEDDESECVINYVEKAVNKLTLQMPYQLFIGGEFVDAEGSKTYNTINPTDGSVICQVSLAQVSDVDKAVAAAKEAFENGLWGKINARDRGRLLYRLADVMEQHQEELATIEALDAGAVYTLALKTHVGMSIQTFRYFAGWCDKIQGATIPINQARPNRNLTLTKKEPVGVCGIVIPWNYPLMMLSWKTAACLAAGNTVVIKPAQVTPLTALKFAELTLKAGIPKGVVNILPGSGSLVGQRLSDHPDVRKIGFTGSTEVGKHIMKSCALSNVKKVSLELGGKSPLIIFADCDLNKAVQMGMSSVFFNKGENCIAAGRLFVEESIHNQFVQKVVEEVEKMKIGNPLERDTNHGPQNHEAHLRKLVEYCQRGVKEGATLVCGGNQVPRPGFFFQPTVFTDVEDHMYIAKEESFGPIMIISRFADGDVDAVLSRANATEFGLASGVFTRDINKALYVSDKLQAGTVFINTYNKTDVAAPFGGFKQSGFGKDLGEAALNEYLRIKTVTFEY
The assay can be described thus: Effect on rat carboxy terminal ALDH domain of ALDH1L1 at 20 uM preincubated for 2 mins with NAD+ followed by aldehyde substrate addition.

The target of assay [3] is T3, Aldehyde dehydrogenase, dimeric NADP-preferring (Homo sapiens) (UniProt P30838).
T3 sequence (whole entry): T1 sequence (P30838 whole entry)
In words: Effect on recombinant human ALDH3A1 using benzaldehyde as substrate at 20 uM preincubated for 2 mins with NAD+ followed by substrate addition by UV-Vis spectrophotometric analysis.

Assay [4] has as its target T4, Retinaldehyde dehydrogenase 3 (Homo sapiens) (UniProt P47895).
T4 sequence (whole entry): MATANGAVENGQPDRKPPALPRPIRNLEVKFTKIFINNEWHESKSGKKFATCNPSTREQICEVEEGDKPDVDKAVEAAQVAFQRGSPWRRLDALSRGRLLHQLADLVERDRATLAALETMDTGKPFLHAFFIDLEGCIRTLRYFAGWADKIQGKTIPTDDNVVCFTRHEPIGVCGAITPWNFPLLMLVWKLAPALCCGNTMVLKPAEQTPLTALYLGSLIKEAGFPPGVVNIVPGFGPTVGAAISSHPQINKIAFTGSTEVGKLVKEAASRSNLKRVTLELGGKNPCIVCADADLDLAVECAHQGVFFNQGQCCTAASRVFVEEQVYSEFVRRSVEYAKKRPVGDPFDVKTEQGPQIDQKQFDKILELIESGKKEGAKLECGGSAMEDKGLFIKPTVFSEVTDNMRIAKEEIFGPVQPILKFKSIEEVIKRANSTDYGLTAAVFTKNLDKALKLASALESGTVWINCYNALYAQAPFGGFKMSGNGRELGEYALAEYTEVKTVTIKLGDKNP
In words: Effect on recombinant human ALDH1A3 using propionaldehyde as substrate at 20 uM preincubated for 2 mins with NAD+ followed by substrate addition by UV-Vis spectrophotometric analysis.

The target of assay [5] is T5, Retinal dehydrogenase 2 (Homo sapiens) (UniProt O94788).
T5 sequence (whole entry): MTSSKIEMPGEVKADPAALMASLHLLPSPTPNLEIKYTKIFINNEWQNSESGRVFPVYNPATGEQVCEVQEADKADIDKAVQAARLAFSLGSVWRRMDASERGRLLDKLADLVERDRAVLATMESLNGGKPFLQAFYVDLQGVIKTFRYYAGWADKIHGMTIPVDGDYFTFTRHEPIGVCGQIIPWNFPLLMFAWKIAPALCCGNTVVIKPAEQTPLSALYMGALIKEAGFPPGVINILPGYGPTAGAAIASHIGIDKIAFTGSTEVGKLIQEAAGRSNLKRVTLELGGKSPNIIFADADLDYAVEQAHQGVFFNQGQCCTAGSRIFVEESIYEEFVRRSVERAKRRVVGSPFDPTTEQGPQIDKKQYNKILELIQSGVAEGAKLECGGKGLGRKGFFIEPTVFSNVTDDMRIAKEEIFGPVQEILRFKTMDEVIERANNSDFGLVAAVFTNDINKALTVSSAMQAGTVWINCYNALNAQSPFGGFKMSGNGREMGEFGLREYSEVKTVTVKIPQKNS
The assay can be described thus: Effect on recombinant human ALDH1A2 using propionaldehyde as substrate at 20 uM preincubated for 2 mins with NAD+ followed by substrate addition by UV-Vis spectrophotometric analysis.

Calls of active or inactive are those of the source. The rule behind the calls is not given here.

Regarding `Cn1c(=O)c2c(nc(SCC(N)=O)n2Cc2ccccc2F)n(C)c1=O`, in assay [1], the IC50 – broadly, the midpoint of a concentration-inhibition curve – was above 100 µM.

For `CC(C)CCn1c(CN2CCN(C(=O)c3ccco3)CC2)nc2c1c(=O)n(C)c(=O)n2C`, the result in assay [2], in assay [3], in assay [4] and in assay [5] was inactive.

Values taken from ChEMBL document CHEMBL3414499, “Characterization of two distinct structural classes of selective aldehyde dehydrogenase 1A1 inhibitors” (J Med Chem, 2015).
